The values that follow come from patent US12157730B2, “Heteroaryl derivative, method for producing same, and pharmaceutical composition comprising same as effective component” (VORONOI INC., priority 2019, dated 2024).

The assay concerns the target T1, Ba/F3 cell EGFR Exon20 ins NPH (Homo sapiens, UniProt P00533, INS773NPH).
T1 construct: expressed in transfected cells; host or cells: Ba/F3
Nature of the assay: Ba/F3 cell proliferation suppression, EGFR Exon20 ins NPH. Type of assay: cell-based. As to conditions: GI50 class; Ba/F3 cell line with NPH inserted at Exon20 of EGFR; 72 hours. The gist of the method: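 Growth suppression determined as GI50 following 72 h exposure across 12 concentrations up to 50 um, with viability by luminescent ATP assay (CellTiter-Glo).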

In the case of `C=CC(=O)Nc1cc(Nc2cc(N3OCC[C@@H]3c3cccc(F)c3F)ncn2)c(OC)cc1N1CCC(N2CCN(C3COC3)CC2)CC1` [Example 195, N-(5-((6-((R)-3-(2,3-difluorophenyl)isoxazolidine-2-yl)pyrimidine-4-yl)amino)-4-methoxy-2-(4-(4-(oxetane-3-yl)piperazine-1-yl)piperidine-1-yl)phenyl) acrylamide], the “Ba/F3 (NPH) Activity” value is listed as “A (GI50 < 50 nM)”. For the compound `C=CC(=O)Nc1cc(Nc2cc(N3OCC[C@@H]3c3cccc(F)c3F)ncn2)c(OC)cc1N1CCN(C)[C@@H](C)C1` [compound 883, N-(5-((6-((R)-3-(2,3-difluorophenyl)isoxazolidine-2-yl)pyrimidine-4-yl)amino)-2-((S)-3,4-dimethylpiperazine-1-yl)-4-methoxyphenyl) acrylamide], the “Ba/F3 (NPH) Activity” value is “A (GI50 < 50 nM)”. Regarding `C=CC(=O)Nc1cc(Nc2cc(N3OCC[C@@H]3c3cccc(Cl)c3F)ncn2)c(OC)cc1N1CCC(N2CCC(N(C)C)CC2)CC1` [compound 915, N-(5-((6-((R)-3-(3-chloro-2-fluorophenyl)isoxazolidine-2-yl)pyrimidine-4-yl)amino)-2-(4-(dimethylamino)-[1,4'-bipiperidine]-1'-yl)-4-methoxyphenyl) acrylamide], the “Ba/F3 (NPH) Activity” value is listed as “B (50 nM ≤ GI50 < 500 nM)”. In the case of `C=CC(=O)Nc1cc(Nc2cc(N3OCC[C@@H]3c3cccc(F)c3)ncn2)c(OC)cc1N1CCC(N2CCN(C)CC2)CC1` [Example 31, N-(5-((6-((R)-3-(3-fluorophenyl)isoxazolidine-2-yl)pyrimidine-4-yl)amino)-4-methoxy-2-(4-(4-methylpiperazine-1-yl)piperidine-1-yl)phenyl) acrylamide], the “Ba/F3 (NPH) Activity” value is given as “A (GI50 < 50 nM)”.

In the case of `C=CC(=O)Nc1cc(Nc2cc(N3OCC[C@@H]3c3cccc(F)c3F)ncn2)c(OC)cc1N1CCC(N2CCN(CCC)CC2)CC1` [compound 342, N-(5-((6-((R)-3-(2,3-difluorophenyl)isoxazolidine-2-yl)pyrimidine-4-yl)amino)-4-methoxy-2-(4-(4-propylpiperazine-1-yl)piperidine-1-yl)phenyl)acrylamide], the “Ba/F3 (NPH) Activity” value was “A (GI50 < 50 nM)”.

On to `C=CC(=O)Nc1cc(Nc2cc(N3OCC[C@@H]3c3ccc4ccccc4c3)ncn2)c(OC)cc1N1C[C@@H](C)O[C@@H](C)C1` [compound 664, N-(2-((2S,6R)-2,6-dimethylmorpholino)-4-methoxy-5-((6-((R)-3-(naphthalene-2-yl)isoxazolidine-2-yl)pyrimidine-4-yl)amino)phenyl)acrylamide], for which the “Ba/F3 (NPH) Activity” value is “C (500 nM ≤ GI50 < 5000 nM)”. Consider `C=CC(=O)Nc1cc(Nc2cc(N3OCC[C@@H]3c3ccc4ccccc4c3)ncn2)c(OC)cc1N1CCC(N2CCN(C(C)C)CC2)CC1` [compound 550, N-(2-(4-(4-isopropylpiperazine-1-yl)piperidine-1-yl)-4-methoxy-5-((6-((R)-3-(naphthalene-2-yl)isoxazolidine-2-yl)pyrimidine-4-yl)amino)phenyl)acrylamide], for which the “Ba/F3 (NPH) Activity” value is “B (50 nM ≤ GI50 < 500 nM)”. Consider `C=CC(=O)Nc1cc(Nc2cc(N3OCC[C@@H]3c3cccc(Cl)c3Cl)ncn2)c(OC)cc1N1CCC(N2CCN(C3CCOCC3)CC2)CC1` [Example 208, N-(5-((6-((R)-3-(2,3-dichlorophenyl)isoxazolidine-2-yl)pyrimidine-4-yl)amino)-4-methoxy-2-(4-(4-(tetrahydro-2H-pyran-4-yl)piperazine-1-yl)piperidine-1-yl)phenyl)acrylamide], for which the “Ba/F3 (NPH) Activity” value is on record as “A (GI50 < 50 nM)”. Turning to `C=CC(=O)Nc1cc(Nc2cc(N3OCC[C@@H]3c3ccc4ccccc4c3)ncn2)c(OC)cc1N1CCN(C)CC1` [compound 509, N-(4-methoxy-2-(4-methylpiperazine-1-yl)-5-((6-((R)-3-(naphthalene-2-yl)isoxazolidine-2-yl)pyrimidine-4-yl)amino)phenyl)acrylamide], the “Ba/F3 (NPH) Activity” value is “B (50 nM ≤ GI50 < 500 nM)”.
